Test [1] addresses T1, Cyt c (Equus caballus, UniProt P00004).
T1 construct: Equine heart Cyt c and dimethyl sulfoxide (DMSO) were purchased from Sigma Aldrich; purchased Sigma Aldrich; host or cells: equine heart (tissue-derived, as the product name says)
The test can be described thus: SPR qualitative comparison of peptide bindings to immobilized Cyt c. Type of test: binding, Equine heart. The conditions noted are these: for SPR signal compared to PhNgb1-Wt (qualitative) / binding to Cyt c (qualitative) / binding to Cyt c compared to PhNgb2-Wt (qualitative): SPR sensorgrams, HBS-P+1% DMSO, pH 7.4, 60 s injection; for SPR signal compared to PhNgb1-Wt (qualitative) / binding to Cyt c (qualitative): Fig. 4A; for binding to Cyt c (qualitative): repeated at least two times; for binding to Cyt c compared to PhNgb2-Wt (qualitative): Fig. 4C. Here is the method:
The peptides were dissolved in 100% DMSO and further diluted in the running buffer (10 mM HEPES pH 7.4, 150 mM NaCl, and 0.05% v/v surfactant P20 supplemented at 1% v/v DMSO) and injected over the Cyt c-immobilized surface at various concentrations.
Equine heart Cyt c and dimethyl sulfoxide (DMSO) were purchased from Sigma Aldrich. The amine coupling kit, Series S sensor chip CM5, and HBS-P+ buffer (0.1 M HEPES, 1.5 M NaCl, and 0.5% v/v surfactant P20) were purchased from GE Healthcare.
The SPR experiments were performed using a Biacore T200 SPR instrument (GE Healthcare). Cyt c, which was used as a ligand, was immobilized onto the CM5 chip up to a level of ~9000 Response Units (RU) in the presence of 10 mM sodium acetate buffer at pH 5.5. A standard amine coupling chemistry according to the manufacturer’s recommended protocol (GE Healthcare) was used to immobilize Cyt c. HBS-P+ buffer was diluted 10X to 10 mM HEPES pH 7.4, 150 mM NaCl, and 0.05% v/v surfactant P20 (HBS-P) in ddH2O and filtered through a […] polystyrene membrane filter. HBS-P was used as the immobilization running buffer. The peptides were used as analytes to inject over the Cyt c-immobilized CM5 chip surface in various concentrations in an HBS-P+1% DMSO buffer. HBS-P+1% DMSO was used as the running buffer in the analyte-ligand binding experiments. […] All analytes were injected in duplicate in each cycle. The kinetics experiments were repeated for three times. All qualitative experiments, including inhibition experiments were repeated at least two times with the wild type peptides injected as positive controls in each experiment.
VMD[34] was used to analyze and visualize the structure and simulation trajectories. The total interaction energy was calculated using NAMD energy plugin available in VMD. Each frame in the NVT simulation trajectory was saved at every 200 ps. An atomic distance of 3.5 Å and angle cutoff of 30 degrees were used to trace hydrogen bonding and the same atomic distance of 3.5 Å was used as the cut off to analyze interfacial contacts and salt bridges. For contacts analysis, only residues that show contacts for more than 1000 frames were considered. Carma[38] was used to determine the radius of gyration (Rg) and to perform PCA as well as PCA-based cluster analyses. GraphPad prism (GraphPad Software, Inc.) was used to generate the graphs. The bonding distances between D73 (in hNgb, atom OD2) and K72 (in Cyt c, atom NZ), T77 (in hNgb, atom OG1) and K72 (in Cyt c, atom NZ), E87 (in hNgb, atom OE2) and K27 (in Cyt c, atom NZ) as well as between E86 (in hNgb, atom OE2) and K27 (in Cyt c, atom NZ) were plotted. All graphs obtained from analyses of MD simulation trajectories were averaged with 25 neighboring points and 4th order smoothing polynomial using the GraphPad prism software. Biacore T200 evaluation software version 1.0 (GE Healthcare) was used to analyze the SPR sensorgrams.

For test [2], the system named is PhNgb1-Wt binding to Cyt c. The test can be described thus: SPR inhibition experiment: PhNgb1-Wt binding to immobilized Cyt c in presence of PCyt c. The arrangement: species or system Equine heart. Conditions: mixture of PhNgb1-Wt and PCyt c in 1:2 molar ratio, Fig. 4B, 60 s injection. As for the experimental part: We conducted SPR experiments with mutated peptides. […] (hNgb) and […] (hNgb) together take part in binding to […] (Cyt c), making a strong bonding as predicted by simulations. We could not perform quantitative investigations (via determination of KD values) for the mutated peptides due to solubility issues at higher concentrations. […] This experiment further confirms the involvement of the predicted amino acid […]) in the hNgb-Cyt c complex formation. […] The SPR experiments were performed using a Biacore T200 SPR instrument (GE Healthcare). Cyt c, which was used as a ligand, was immobilized onto the CM5 chip up to a level of ~9000 Response Units (RU) in the presence of 10 mM sodium acetate buffer at pH 5.5. A standard amine coupling chemistry according to the manufacturer's recommended protocol (GE Healthcare) was used to immobilize Cyt c. HBS-P+ buffer was diluted 10X to 10 mM HEPES pH 7.4, 150 mM NaCl, and 0.05% v/v surfactant P20 (HBS-P) in ddH2O and filtered through a […] polystyrene membrane filter. HBS-P was used as the immobilization running buffer. The peptides were used as analytes to inject over the Cyt c-immobilized CM5 chip surface in various concentrations in an HBS-P+1% DMSO buffer. HBS-P+1% DMSO was used as the running buffer in the analyte-ligand binding experiments. […] All analytes were injected in duplicate in each cycle. […]

The test system of test [3] is ferric Cyt c. The conditions noted are these: SPR, nanopore-based nanopipettes, ITC; ferric hNgb and ferric Cyt c; cited from earlier work. An excerpt: Electrochemical impedance spectroscopy measurements have also confirmed the formation of an hNgb-Cyt c complex. Computational docking is useful to investigate the complex formation between proteins. Several computational docking studies have bee ...

Test [4] has as its system caspase 9 activation. Conditions: binding of Ngb to Cyt c alone, no redox reaction required, cited from earlier work. The text has this: Cytochrome c (Cyt c), which is another heme protein[13], is a known Ngb binding partner[12],[14]. This mitochondrial heme protein triggers cell apoptosis during apoptotic cell signaling. During ischemic insults, the cellular apoptotic pathway is activated, leading to the release of ferric Cyt c, which is an essential component of the apoptosome, into the cytoplasm[16]–[18]. […] Importantly, this K72 residue takes part in interactions of Cyt c with apoptotic protease-activation factor-1[31]. […] There ...

Read-outs that look alike come from different tables or passages of the source.

This is an account of results in article PMC6043506, “Investigating molecular interactions between oxidized neuroglobin and cytochrome c” (Scientific Reports, 2018).

T1 sequence (P00004 whole entry): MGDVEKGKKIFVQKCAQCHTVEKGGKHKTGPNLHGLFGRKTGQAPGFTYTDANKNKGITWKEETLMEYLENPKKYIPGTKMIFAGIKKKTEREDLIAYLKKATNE

Turning to “LENPKKYIP [PCyt c, peptide with amino acids L68 to P76 in Cyt c]”, the “binding of PCyt c to immobilized Cyt c (qualitative)” value in test [1] (SPR) is “does not bind to immobilized Cyt c”. The “inhibition of PhNgb1-Wt binding (qualitative)” value in test [2] is “diminished signal as compared to PhNgb1-Wt signal”. Take MLVIAAAVTNVED [PhNgb1-M2]: in test [1], the “SPR signal compared to PhNgb1-Wt (qualitative)” value is reported as “weaker SPR signals as compared to SPR signals for PhNgb1-Wt” and the “binding to Cyt c (qualitative)” value was “bind to Cyt c”. For MLVIDAAVANVED [PhNgb1-M1] the same measures were “weaker SPR signals as compared to SPR signals for PhNgb1-Wt” and “bind to Cyt c”. In the case of SSLAAYLAS [PhNgb2-M2], the “binding to Cyt c compared to PhNgb2-Wt (qualitative)” value in test [1] was “comparable binding”. On to SSLEAYLAS [PhNgb2-M1], for which, in test [1], the “binding to Cyt c compared to PhNgb2-Wt (qualitative)” value is given as “stronger binding”.

B1: hNgb: ferric human Ngb; six-coordinated heme protein; PDB ID 4MPM (Chain B) (protein, UniProt Q9NPG2 1-151, looked up)
Neuroglobin: MERPEPELIRQSWRAVSRSPLEHGTVLFARLFALEPDLLPLFQYNCRQFSSPEDCLSSPEFLDHIRKVMLVIDAAVTNVEDLSSLEEYLASLGRKHRAVGVKLSSFSTVGESLLYMLEKCLGPAFTPATRAAWSQLYGAVVQAMSRGWDGE
modifications: ferric heme
On to B1, for which the “affinity to ferric Cyt c” value in test [3] was “micromolar affinity”. In addition, the “effect on caspase 9 activation” value in test [4] is “enough to suppress caspase-9 activation”; in test [4] (listed as Ngb), “sufficient to block the Cyt c-induced caspase 9 activation”.
